Laboratory results reported in US20020026053A1, “Novel 3-(substituted) -2- indolinones compounds and use thereof as inhibitors of protein kinase activity” (priority 1997, published 2002).
Read-outs that look alike come from different tables or passages of the source.

Experiments:
[1] = system: PDGF-R; assay: PDGF-R Assay (cellular ELISA, U1242 cells); type: cell-based; set-up: concentration or dose not given beside the values
Method in brief: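 U1242 cells seeded in 0.5% serum, serum-starved, then exposed to compound for 2 hr at 37°C before 5–10 min ligand stimulation and lysis in HNTG. Lysate captured on receptor-antibody-coated plates; phosphotyrosine detected with polyclonal anti-pTyr, goat anti-rabbit IgG and ABTS/H2O2, A410 (ref 630 nm), versus untreated cells.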

[2] = system: FLK-1 receptor; assay: FLK-1 Assay (cellular/catalytic ELISA, VEGF-stimulated phosphotyrosine); type: cell-based; set-up: concentration or dose not given beside the values
Method in brief: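 NIH3T3 C7#3 cells engineered to express Flk-1 were serum-starved overnight (0.1% FBS), then exposed to compound for 2 h at 37 °C (final dilution 1:200, 0.5% DMSO) before VEGF stimulation. Lysates captured on anti-FLK-1 antiserum plates; phosphotyrosine detected by UB40 antibody/POD-ABTS ELISA versus untreated controls.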

Structure (SMILES) | PDGF Kinase % Inhibition (P.119) [1] | Flk Kinase % Inhibition (P.110) [2] | PDGF Kinase % Inhibition (P.119) ([1]; protocol P.119) | Flk Kinase % Inhibition (P.110) ([2]; protocol P.110)
Cc1c(Br)cc(Br)c2c1C(=Cc1ccccc1[N+](=O)[O-])C(=O)N2 [10726/H02] | −8.3% | −8.5% |  | 
CCOC(=O)c1[nH]c(C=C2C(=O)Nc3c(Br)cc(Br)c(C)c32)c(C(=O)OC)c1C [10726/H03] | −17.8% | 0.4% |  | 
Cc1cc(C=C2C(=O)Nc3c(Br)cc(Br)c(C)c32)cc(C(C)(C)C)c1O [10726/H04] | 13.2% | 2.5% |  | 
COc1cccc(C=C2C(=O)Nc3ccc(S(=O)(=O)N4CCOCC4)cc32)c1 [10736/F10] | 11.0% | 7.7% |  | 
O=C1Nc2ccc(S(=O)(=O)N3CCOCC3)cc2C1=Cc1ccccc1Cl [10736/F11] | 4.4% | 3.7% |  | 
O=C1Nc2ccc(CCCl)cc2C1=Cc1ccc(Cl)cc1 [10736/G02] | −5.2% | −7.2% |  | 
O=C1Nc2ccc(CCCl)cc2C1=Cc1ccccc1C(F)(F)F [10736/G03] | 1.4% | 4.5% |  | 
Cc1cccc(C=C2C(=O)Nc3ccc(CCCl)cc32)c1 [10736/G04] | −8.3% | 13.0% |  | 
O=C1Nc2ccc(CCCl)cc2C1=Cc1cccc(F)c1 [10736/G07] |  |  | −14.8% | 9.4%
O=C1Nc2ccc(CCCl)cc2C1=Cc1ccccc1F [10736/G08] |  |  | −9.2% | −0.1%
CCc1ccc(C=C2C(=O)Nc3ccc(CCCl)cc32)cc1 [10736/G09] |  |  | −3.5% | −2.1%
COc1cccc(C=C2C(=O)Nc3ccc(CCCl)cc32)c1 [10736/G10] |  |  | −7.4% | 6.0%
O=C1Nc2ccc(CCCl)cc2C1=Cc1ccccc1Cl [10736/G11] |  |  | −1.7% | 0.0%
Cc1c(Br)cc(Br)c2c1C(=Cc1ccc(Cl)cc1)C(=O)N2 [10736/H02] |  |  | −6.1% | 6.1%
Cc1c(Br)cc(Br)c2c1C(=Cc1ccccc1C(F)(F)F)C(=O)N2 [10736/H03] |  |  | 2.2% | 15.1%
Cc1cccc(C=C2C(=O)Nc3c(Br)cc(Br)c(C)c32)c1 [10736/H04] |  |  | −10.9% | 14.0%
Cc1ccc(C=C2C(=O)Nc3c(Br)cc(Br)c(C)c32)cc1 [10736/H05] |  |  | −10.0% | 16.3%
Cc1c(Br)cc(Br)c2c1C(=Cc1cccc(Cl)c1)C(=O)N2 [10736/H06] |  |  | 9.3% | 15.5%
